For orientation: melting point means the temperature, or range, at which the solid turns liquid. Molecule `COC(=O)N/C(=C\C[PH](=O)CO)C(=O)O` (centres undefined) registered a melting point of 254 to 256 °C.

For the molecule `COc1ccc(OCCCCBr)c(C2(SC)Sc3ccccc3N(C)C2=O)c1` (centres undefined), the melting point was 102 to 103 °C.

`CCOC(=O)c1ccccc1Cn1c(C(=O)O)cc2ccccc21` showed a melting point of 136 °C.

In turn, `Cc1cc(C)c([N+](=O)[O-])cc1N1CCC1=O` came in with a melting point of 102 °C.

Consider `CCCC/C=C\CCCCCCCCCC1=CC(=O)C=C(OC)C1=O`, for which the melting point fell in the range of 39.5 to 41.5 °C.

On to `COc1cc2ncc(C#N)c(Nc3cccc(C(=O)O)c3C)c2cc1OC`, for which the melting point lay within 242 to 245 °C.

The molecule `O=C(O)c1ccc(C2=NOC(c3cc(Cl)cc(Cl)c3)(C(F)(F)F)C2)cc1` (centres undefined) had a melting point of 237 to 240 °C.

`O=C1Nc2ccccc2N2CCN(c3ccccc3)CCN12` displayed a melting point of 198 to 199 °C.

`CC(O)Cc1c2ccccc2cc2ccccc12` (centres undefined) yielded a melting point of 105 to 107 °C.

In the case of `CC(C)NCC(O)COc1ccc(OCCSCC2CC2)cc1` (centres undefined), the melting point worked out at 86 °C.

The molecule `O=C(O)CCCCCCn1c(-c2ccccc2)nc(-c2ccccc2)c1-c1ccccc1` yielded a melting point of 149 to 150 °C.

For the molecule `Cc1cc(O)ccc1-c1cc2cc(O)ccc2o1`, the melting point was in the range of 167 to 169 °C.

As to `CCSC(C)(C)C(=O)CC(=O)Nc1cc([N+](=O)[O-])ccc1OC`, the melting point was in the range of 138 to 140 °C.

In turn, `O=C(c1ccc(-n2ccnc2)cc1)N1Cc2cccn2Cc2ccccc21` returned a melting point of 171 to 172 °C.

As for `CCOC(=O)CCC(=O)c1cnc2c(OC)cccc2c1NCc1ccccc1C`, the melting point lay within 152 to 155 °C.

Consider `CC(=O)C1CCC2C3CCC4CC(=O)CCC4(C)C3C(O)CC12C` (centres undefined), for which the melting point lay within 227 to 233 °C.

Regarding `COc1cc(-c2ccnc(Nc3cccc(OC(F)(F)C(F)F)c3)n2)cc(OC)c1OC`, the melting point worked out at 132 °C.

The molecule `COC(=O)c1nc2cc(Cl)c3cccnc3c2o1` yielded a melting point of 214 to 215 °C.

In turn, `COCn1cc(C(=O)c2ccccc2)c(-c2cccc(Cl)c2)n1` returned a melting point of 106 to 108 °C.

As to `Cc1ccc(Cn2c(=O)c3c(N4CCN(C)CC4)cc(Cl)cc3n(Cc3ccccc3)c2=O)cc1C`, the melting point is 96 to 99 °C.

The molecule `CCC(C)Cc1ccc(C(=O)O)cc1C#N` (centres undefined) yielded a melting point of 91.2 to 92.1 °C.

`COc1cc(CC(CO)NC(=O)c2ccccc2)cc(OC)c1` (centres undefined): the melting point is 117 to 118 °C.

Regarding `CC(C)CC1(CCCCCl)C(=O)Nc2c(Cl)cc(Cl)cc21` (centres undefined), the melting point is 93 to 94 °C.

`O=CN(O)C(CN1CCOCC1)CS(=O)(=O)c1ccccc1Oc1ccc(OC(F)(F)F)cc1` (centres undefined) had a melting point of 161 to 163 °C.

The molecule `COc1ccccc1N1CCN(CC2CCc3ccccc3C2O)CC1` (centres undefined) gave a melting point of 110 to 113 °C.

As for `CCC(C)(C)c1cc(C(=O)O)c(O)c(C(C)(C)CC)c1`, the melting point was in the range of 132 to 133 °C.

As for `CCOc1cc(OCC(=O)N2CCN(C(=O)OC(C)(C)C)CC2)cc2c1C(=O)N(COC(=O)c1c(Cl)cccc1Cl)S2(=O)=O`, the melting point is 193 to 195 °C.

With `CCN(CC)C(=O)CN1C(=O)C(NC(=O)Nc2ccccc2Cl)N=C(c2ccccc2)c2ccccc21` (centres undefined), the melting point was 173 to 175 °C.

Molecule `Cc1ccc([N+](=O)[O-])cc1S(=O)(=O)n1ccnc1` gave a melting point of 119 to 120 °C.

With `CCOC(=O)C(=CNc1cnsn1)C(=O)c1cc(F)c(F)cc1F`, the melting point lay in the range of 117 to 118 °C.

`O=C1c2cc(Br)ccc2CCc2ccc(S(=O)(=O)F)cc21`: the melting point lay within 148 to 151 °C.

Take `CN(C)C(=O)c1cc2n(c1)CCc1ccccc1C2=O`: the melting point fell in the range of 148 to 150 °C.

As to `COCC1CN(c2ccc3cc(S(N)(=O)=O)ccc3c2)C(=O)O1` (centres undefined), the melting point is 166 to 168 °C.

The molecule `O=C(C=Cc1cncc(O)c1)NCCCN1CCN(C(c2ccccc2)c2ccccc2)CC1` yielded a melting point of 189 to 191 °C.

Regarding `O=C1CCCCC1c1ccc(F)cc1` (centres undefined), the melting point lay within 56 to 59 °C.

As for `O=C1NC(=O)c2c1c(-c1ccccc1Cl)cc1c2ccn1CCCO`, the melting point is 225 to 227 °C.

Molecule `CCOC(=O)c1cn(C)c2cnc3cc(F)c(N4CC5(C)CC4CC(C)(C)C5)cc3c2c1=O` (centres undefined) displayed a melting point of 187 °C.

In the case of `COc1ccc(-c2coc3c(C)c(O)ccc3c2=O)cc1OC`, the melting point stood at 234 °C.

Take `COc1ccc2c(c1)CCC1=C2CCC(=O)N1`: the melting point fell in the range of 203 to 204 °C.

The molecule `Nc1ccc(OCc2cscn2)cc1` registered a melting point of 114 to 115 °C.

The molecule `CNc1nc(NS(=O)(=O)c2ccc(N)cc2)cc(N2CCCC2)n1` displayed a melting point of more than 300 °C.

`Nc1nc(N2CCC2)c2ncn(C3CC(O)C(CO)C3)c2n1` (single isomer, unassigned; (+)): the melting point was 194 to 195 °C.

The molecule `CCC(O)(CCCCO)C(=O)Nc1ccnc(Br)c1` (centres undefined) displayed a melting point of 103 °C.

For the molecule `[N-]=[N+]=NC1CCCC2(CCCC2)NC1=O` (centres undefined), the melting point lay within 96 to 99 °C.

In the case of `CC(=O)NC[C@H]1CN(c2ccc(-c3noc(C(N)=O)n3)c(F)c2)C(=O)O1`, the melting point was in the range of 218 to 220 °C.

`Cc1cc(C)c2c(=O)c([N+](=O)[O-])coc2c1` yielded a melting point of 120 to 125 °C.

On to `O=C(O)c1cc(S(=O)Cc2ccccc2)c(Cl)cc1Cl` (centres undefined), for which the melting point is 192 °C.

In the case of `CN(c1ccccc1)c1cc(NCc2ccco2)c(C(=O)O)cc1S(N)(=O)=O`, the melting point is 145 °C.

As for `COc1nc(C2=NC(=O)C(C)(C(C)C)N2)c(C(=O)O)cc1C` (centres undefined), the melting point is 151 to 153 °C.

For the molecule `CCOc1ccc(C(=O)N2CCc3cc(S(=O)(=O)n4cc(-c5ccccc5)[nH]c4=O)ccc32)cc1`, the melting point lay within 249 to 253 °C.

Regarding `CC(C)Nc1ncnc2sc([N+](=O)[O-])cc12`, the melting point stood at 200 °C.

In the case of `CCC(CC)n1cc(Cl)nc(N2CCc3cc(OC)cc(C)c32)c1=O`, the melting point is 164 to 165 °C.

With `Nc1ccc2sc3ccccc3c(=O)c2c1`, the melting point was in the range of 227 to 229 °C.

The molecule `Cc1ccc(C2COc3c(C)c(C)c(N)c(C)c32)cc1` (centres undefined) returned a melting point of 121 to 122 °C.

The molecule `Cc1c(O)c(=O)ccn1CCCO` displayed a melting point of 111 to 113 °C.

As to `CCOC(=O)N(N)C(=O)c1cc(Cl)ccc1O`, the melting point was 172 °C.

Consider `COc1ccnc(N2CCC3(CCCN(Cc4c[nH]c5ccccc45)C3=O)CC2)n1`, for which the melting point lay within 190 to 191 °C.

As for `COC(=O)c1ccc(/C=C\c2ccc(C(=O)OC)cc2Cl)cc1`, the melting point lay in the range of 134 to 135 °C.

`CCCCCCCCCCCCCCCCCCNC(=O)OC(=O)CCCCCCCCCCC` showed a melting point of 83 °C.

For the molecule `N#Cc1ccc(C(=C2CCOC2=O)n2ccnc2)cc1`, the melting point fell in the range of 194 to 197 °C.

Molecule `CCOC(=O)C1C(=O)Nc2ccccc2SC1c1ccc(OC)cc1` (centres undefined) gave a melting point of 192 °C.

`CCCO[C@H]1CC[C@H](c2cnc(-c3ccc(C#N)cc3)nc2)CC1` came in with a melting point of 114 °C.

`CCCCc1ccc(S(=O)(=O)Nc2nncs2)cc1` registered a melting point of 120 to 121 °C.

In turn, `C=CC(=O)OCCCCCCC(CCCCCCOC(=O)C=C)C(=O)OCCCCCCCCCCCCCCCCOc1ccc(-c2cccc(F)c2F)cc1` gave a melting point of 33.8 to 35.5 °C.

`Cc1c(-c2ccccc2)c(N2CC[C@H](N(C)C)C2)c2oc(N3CC(O)C3)nc2c1C#N`: the melting point lay within 219 to 221 °C.

Regarding `CCc1ccc2c(c1)C(c1ccccc1F)=NCC1CN=C(C)N21` (centres undefined), the melting point was 152 to 154 °C.

Take `CSCCC(NCc1cc(Br)cc(Br)c1N)C(=O)O` (centres undefined): the melting point came to 212 °C.

`COc1cc2c3c(cccc3c1OC)C(=O)N(O)C2=O` gave a melting point of 226 to 228 °C.

The molecule `Cn1nc(-c2cc(C(C)(C)C)c(O)c(C(C)(C)C)c2)c2cccnc21` yielded a melting point of 152 to 154 °C.

Take `CN(C)Cc1ccc(SC2CCN(C(c3ccccc3)(c3ccccc3)c3ccccc3)CC2)cc1`: the melting point worked out at 163 °C.

Turning to `Cc1cnn(-c2ccc(Cl)cc2Cl)c(=O)c1Br`, the melting point worked out at 108 °C.

For the molecule `C=CCc1c2c(cc3c(=O)cc(C(=O)OCC)oc13)CCCC2`, the melting point was in the range of 98 to 101 °C.

`CN(c1cc2occc(=O)c2cc1Oc1ccccc1)S(C)(=O)=O` had a melting point of 187 to 189 °C.

Molecule `COc1cccc(N(C)c2nc(N)nc3[nH]c4ccccc4c23)c1` registered a melting point of 245 to 246 °C.

`O=C(CCCN1CCC2(CC(O)c3cc(F)ccc32)C1)c1ccc(F)cc1` (centres undefined) came in with a melting point of 143 to 145 °C.

The molecule `CCC(C)(C)NC(=S)Nc1cc(Br)cc(Br)c1` registered a melting point of 147 to 149 °C.

`CCCCSc1cn(C)cc(-c2cccc(C(F)(F)F)c2)c1=O` had a melting point of 109 to 110 °C.

In turn, `CN(C)c1ccc(CNC(=O)C(Cc2ccccc2)NC(=O)Nc2ccc(C(=N)N)cc2)cc1` (centres undefined) showed a melting point of 147 °C.

Regarding `N#Cc1nn(-c2c(Cl)cc(C(F)(F)F)cc2Cl)cc1C1CC1(Cl)Cl` (centres undefined), the melting point was in the range of 123 to 126 °C.

`COC(=O)C#CC(=O)c1cccc(C)c1`: the melting point lay within 36 to 38 °C.

Consider `COc1ccc(-c2nc(Cn3ccnc3)cs2)cc1`, for which the melting point lay within 89 to 90 °C.

On to `Cc1ccc2c(c1)N=C(N1CCN(C)CC1)c1cccc3c1N2CC3`, for which the melting point fell in the range of 160 to 162 °C.

For `CC(=O)OC1CCC2(CO)C(CCC3C4=CCC(OC(=O)C(C)(C)C)C4(C)CCC32)C1` (centres undefined), the melting point is 133 to 134 °C.

Molecule `O=C(O)COc1c(-c2cccc(C(F)(F)F)c2)cc(C(=O)NCCCCCCc2ccccc2)cc1-c1cccc(C(F)(F)F)c1` gave a melting point of 166 to 169 °C.

Molecule `O=[N+]([O-])c1cc(Oc2ccc(Oc3cc([N+](=O)[O-])cc(C(F)(F)F)c3)cc2)cc(C(F)(F)F)c1` had a melting point of 163 °C.

Take `COc1ccc(CNc2nc(C)nc(C)c2Cl)cc1OCc1ccccc1`: the melting point is 111 to 117 °C.

`CC(c1oc2ccc(F)cc2c(=O)c1-c1cccc(F)c1)n1nc(-c2cccc(O)c2)c2c(N)ncnc21` (centres undefined) yielded a melting point of 193 to 196 °C.

Consider `O=C1Nc2cccnc2N(C(=O)CCl)c2cc(F)ccc21`, for which the melting point turned out to be 230 °C.

As to `CCOc1ccc(NC(=O)c2c[nH]c3c2C(=O)C(C)(C)CC3)c(F)c1`, the melting point fell in the range of 218 to 219 °C.

For the origin of these results see a melting point compilation (Tetko et al.; mined from patent text by program, amines drawn as free bases though some values may be those of a salt).
